Reference: patent US10537609B2, “MUC1 decoy peptides for treatment and prevention of bacterial infections” (priority 2014, dated 2020)

Key:
[1] = system: P. aeruginosa (Pa) adhesion to A549 cells; assay: Bacterial adhesion assay: Pa preincubated with test material, then adhesion to A549 cell monolayers; conditions: for blocking of Pa adhesion to ECs by free monosaccharides: Pa preincubated 30 min with 5, 10 or 25 mM, separately or in combination (FIG. 10); for reduction of Pa adhesion: Pa preincubated 30 min with shed MUC1-ED preparation, adhesion to fresh A549 monolayers, compared with respective controls (FIG. 11)
MUC1-NEU1 association = conditions: A549 cells preincubated 30 min with 5.0 μM, then 10 ng/ml Pa flagellin 30 min
[2] = system: Pseudomonas aeruginosa lung infection; assay: Mouse survival following Pseudomonas aeruginosa lung infection; format: in vivo, BALB/c mice; conditions: Pa intranasally at LD90 (2.0×10^7 CFU/mouse); MUC1-ED 2.5 μg/mouse, cefepime 1.0 μg/mouse; n=7/group
Procedure: FIG. 14. Effect of E. coli MUC1-ED With or Without Cefepime on Mouse Survival Following Pseudomonas aeruginosa Lung Infection. Pseudomonas aeruginosa was administered intranasally to BALB/c mice at an LD90 (2.0×10^7 CFU/mouse) with PBS control or E. coli-expressed MUC1-ED (2.5 μg/mouse). Simultaneously, PBS or cefepime (1.0 μg/mouse) was administered intraperitoneally, and mouse survival was measured daily (n=7/group).
P. aeruginosa was administered intranasally to groups of seven BALB/c mice at an LD90 (2.0×10^7 CFU/mouse). The control group (group #1) received PBS intraperitoneally as therapy; group #2 received MUC1-ED (2.5 μg/mouse) intraperitoneally; group #3 received cefepime (1.0 μg/mouse) intraperitoneally; group #4 received MUC1-ED (2.5 μg/mouse) and cefepime (1.0 μg/mouse) simultaneously, intraperitoneally. The MUC1-ED was E. coli-expressed deglycosylated peptide having the amino acid sequence set forth in SEQ ID NO:2.

Pa lung infection = assay: Mouse model of Pa lung infection, Pa CFU in BALF and lungs; conditions: Pa preincubated with MUC1-ED; 10^5 CFU/mouse i.t.; 48 h and 72 h post-challenge; vs PBS control

Compound	blocking of Pa adhesion to ECs by free monosaccharides [1]	reduction of Pa adhesion [1]	other results
CC(=O)N[C@H]1C(O)O[C@H](CO)[C@H](O)[C@@H]1O (some centres unmarked) [N-acetylgalactosamine, reference compound]	None of these monosaccharides, either separately or in combination, blocked Pa adhesion to ECs		
CC(=O)N[C@H]1C(O)O[C@H](CO)[C@@H](O)[C@@H]1O (some centres unmarked) [N-acetylglucosamine, reference compound]	None of these monosaccharides, either separately or in combination, blocked Pa adhesion to ECs		
N#CC(=C(/N)Sc1ccccc1N)/C(C#N)=C(\N)Sc1ccccc1N [U0126]			effect on MUC1-NEU1 co-immunoprecipitation (MUC1-NEU1 association): failed to alter MUC1-NEU1 co-immunoprecipitation
CO/N=C(\C(=O)N[C@@H]1C(=O)N2C(C(=O)[O-])=C(C[N+]3(C)CCCC3)CS[C@H]12)c1csc(N)n1 [cefepime, reference compound]			survival over seven days [2]: ~62.5%
O=C[C@H](O)[C@@H](O)[C@@H](O)[C@H](O)CO [galactose, reference compound]	None of these monosaccharides, either separately or in combination, blocked Pa adhesion to ECs		
MUC1-ED from E. coli transformed with pMUC1: deglycosylated form of MUC1-ED prepared by transformation of Escherichia coli with a MUC1 expression plasmid (pMUC1); SEQ ID NO:2 per b204		93%	maximum inhibition of Pa adhesion ([1]; comparison in the discussion, single repeat vs MUC1-ED containing 15 repeats): > 90%; survival over seven days [2]: ~45%; number of Pa recovered from BALF (CFU) (Pa lung infection): reduced the number of Pa recovered; number of Pa recovered from lungs (CFU) (Pa lung infection): reduced the number of Pa recovered
MUC1-ED from GalNAc-O-bn-treated ECs: MUC1-ED from supernates of airway ECs cultured with the O-glycosylation inhibitor benzyl-N-acetyl-α-galactosaminide		88%	
MUC1-ED from tunicamycin-treated ECs: MUC1-ED from supernates of airway ECs cultured with the N-glycosylation inhibitor tunicamycin		did not reduce Pa adhesion	
MUC1-ED: shed MUC1 ectodomain in airway EC culture supernates			MUC1-ED concentrations capable of inhibiting Pa adhesion in vitro ([1]; shed MUC1-ED in EC culture supernates (FIGS. 9A, 9B)): ≤ 0.63 μg/m1
desialylated MUC1-ED from Ad-NEU1-infected ECs: MUC1-ED prepared from culture supernates of airway ECs infected with Ad-NEU1		~65%	
